Legend:
[1] = tested on: HCT116 MTAP null cells; assay: HCT116 MTAP null cell proliferation / viability (CellTiter-Glo, 6 days); format: cell-based; details: HCT116-MTAP null, 144 h, HCT116 MTAP null cells, 6 days, CellTiter-Glo; read-out: HCT-116 MTAP null IC50
Procedure, shortened: (§1)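 CellTiter-Glo luminescence, 6-day exposure, RPMI 1640 + 10% FBS. Dosing: 1:3 series (8-9 pts, top 1 or 10 μM) or 1:2 series (22 pts, top 10 or 50 μM), DMSO control. IC50 = 50% of control via curve fit.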

[2] = tested on: HCT116 WT cells; assay: HCT116 WT cell proliferation / viability (CellTiter-Glo, 6 days); format: cell-based; details: Homo sapiens, HCT-116, 144 h, HCT116 WT cells, 6 days, CellTiter-Glo; read-out: HCT-116 WT IC50
Procedure, shortened: as §1

Row | IC50 [1] [nM] | IC50 [2] [nM] | SMILES
1 | 80 | 2970 | C[C@H]1OCc2c1c(N)nc1cnc(C(=O)N(Cc3ccc(C(F)(F)F)nn3)C3CCC3)cc21 (single isomer, unassigned) [Example 830]
2 | 2570 | 31700 | CC(C)N(C(=O)c1ccc2nc(N)c3c(c2c1)COC3)[C@@H](C)c1ccc(C(F)(F)F)cn1 (single isomer, unassigned) [Example 831]
3 | 454 | 12600 | CC(C)N(C(=O)c1ccc2nc(N)c3c(c2c1)COC3)[C@H](C)c1ccc(C(F)(F)F)cn1 (single isomer, unassigned) [Example 832]
4 | 2560 | 27200 | C[C@@H](c1ncc(F)cn1)N(CCOC(F)(F)F)C(=O)c1cc2c3c(c(N)nc2cc1F)COC3 (single isomer, unassigned) [Example 833]
5 | 817 | 19700 | C[C@H](c1ncc(F)cn1)N(CCOC(F)(F)F)C(=O)c1cc2c3c(c(N)nc2cc1F)COC3 (single isomer, unassigned) [Example 834]
6 | 126 | 3760 | CCN(C(=O)c1ccc2nc(N)c3c(c2c1)COC3)[C@H](C)c1ccc(C#N)cc1 (single isomer, unassigned) [Example 835]
7 | 3640 | 38700 | CCN(C(=O)c1ccc2nc(N)c3c(c2c1)COC3)[C@@H](C)c1ccc(C#N)cc1 (single isomer, unassigned) [Example 836]
8 | 7080 | > 50000 | CCN(C(=O)c1ccc2nc(N)c3c(c2c1)COC3)[C@@H](C)c1ccc(C#N)cn1 (single isomer, unassigned) [Example 837]
9 | 161 | 8590 | CCN(C(=O)c1ccc2nc(N)c3c(c2c1)COC3)[C@H](C)c1ccc(C#N)cn1 (single isomer, unassigned) [Example 838]
10 | 213 | 9520 | CC(C)N(C(=O)c1ccc2nc(N)c3c(c2c1)CO[C@@H]3C)[C@H](C)c1ccc(C(F)(F)F)cn1 (single isomer, unassigned) [Example 839]
11 | 638 | 23000 | CC(C)N(C(=O)c1ccc2nc(N)c3c(c2c1)CO[C@@H]3C)[C@@H](C)c1ccc(C(F)(F)F)cn1 (single isomer, unassigned) [Example 840]
12 | 613 | 11600 | CC(C)N(C(=O)c1cc2c3c(c(N)nc2cc1F)COC3)[C@@H](C)c1ccc(C(F)(F)F)cn1 (single isomer, unassigned) [Example 841]
13 | 115 | 3280 | CC(C)N(C(=O)c1cc2c3c(c(N)nc2cc1F)COC3)[C@H](C)c1ccc(C(F)(F)F)cn1 (single isomer, unassigned) [Example 842]
14 | 3360 | > 50000 | CCN(C(=O)c1ccc2nc(N)c3c(c2c1)CO[C@@H]3C)[C@@H](C)c1ccc(C#N)cn1 (single isomer, unassigned) [Example 843]
15 | 105 | 6220 | CCN(C(=O)c1ccc2nc(N)c3c(c2c1)CO[C@@H]3C)[C@H](C)c1ccc(C#N)cn1 (single isomer, unassigned) [Example 844]
16 | 105 | 2240 | CC(C)N(C(=O)c1cc2c3c(c(N)nc2cc1Cl)COC3)[C@H](C)c1ccc(C(F)(F)F)cn1 (single isomer, unassigned) [Example 845]
17 | 212 | 3940 | CC(C)N(C(=O)c1cc2c3c(c(N)nc2cc1Cl)COC3)[C@@H](C)c1ccc(C(F)(F)F)cn1 (single isomer, unassigned) [Example 846]
18 | 1860 | 36000 | CC(C)N(C(=O)c1cc2c3c(c(N)nc2cn1)COC3)[C@@H](C)c1ccc(C(F)(F)F)cn1 (single isomer, unassigned) [Example 847]
19 | 453 | 11400 | CC(C)N(C(=O)c1cc2c3c(c(N)nc2cn1)COC3)[C@H](C)c1ccc(C(F)(F)F)cn1 (single isomer, unassigned) [Example 848]
20 | 879 | 24400 | CC[C@H](c1ccc(C(F)(F)F)cn1)N(C)C(=O)c1cc2c3c(c(N)nc2cn1)COC3 (single isomer, unassigned) [Example 849]
21 | 8340 | > 50000 | CC[C@@H](c1ccc(C(F)(F)F)cn1)N(C)C(=O)c1cc2c3c(c(N)nc2cn1)COC3 (single isomer, unassigned) [Example 850]
22 | 47 | 4000 | C[C@H](c1ccc(C(F)(F)F)cn1)N(C)C(=O)c1ccc2nc(N)c3c(c2c1)CO[C@@H]3C (single isomer, unassigned) [Example 851]
23 | 3160 | > 50000 | C[C@H]1OCc2c1c(N)nc1ccc(C(=O)N(C)[C@@H](C)c3ccc(C(F)(F)F)cn3)cc21 (single isomer, unassigned) [Example 852]
24 | 167 | 14400 | C[C@H](c1ncc(F)cc1F)N(C)C(=O)c1cc2c(cc1F)nc(N)c1cnn(C)c12 (single isomer, unassigned) [Example 853]

Row | IC50 [1] [nM] | IC50 [2] [nM] | SMILES
25 | 86 | 3280 | C[C@H](c1ccc(C(F)(F)F)cn1)N(C)C(=O)c1cc2c3c(c(N)nc2cn1)COC3 (single isomer, unassigned) [Example 854]
26 | 164 | 28800 | C[C@H](c1ccc(C(F)(F)F)nn1)N(C)C(=O)c1ccc2nc(N)c3cnn(C)c3c2c1 (single isomer, unassigned) [Example 855]
27 | 87 | 8480 | C[C@H](c1ccc(C(F)(F)F)nn1)N(C)C(=O)c1ccc2nc(N)c3c(c2c1)CO[C@@H]3C (single isomer, unassigned) [Example 856]
28 | 26 | 1090 | C[C@H](c1ccc(C(F)(F)F)cc1)N(C)C(=O)c1cc2c3c(c(N)nc2cc1F)COC3 (single isomer, unassigned) [Example 857]
29 | 41 | 3330 | C[C@H](c1ccc(C(F)(F)F)nn1)N(C)C(=O)c1cc2c3c(c(N)nc2cc1F)COC3 (single isomer, unassigned) [Example 858]
30 | 583 | 17500 | C[C@H]1OCc2c1c(N)nc1cc(F)c(C(=O)N(C)[C@@H](C)c3ccc(C(F)(F)F)cc3)cc21 (single isomer, unassigned) [Example 859]
31 | 17 | 849 | C[C@H](c1ccc(C(F)(F)F)cc1)N(C)C(=O)c1cc2c3c(c(N)nc2cc1F)[C@@H](C)OC3 (single isomer, unassigned) [Example 860]
32 | 205 | 13600 | C[C@H](c1ncc(C(F)(F)F)cc1F)N(C)C(=O)c1cc2c(cn1)nc(N)c1c2cnn1C (single isomer, unassigned) [Example 861]
33 | 31 | 2200 | C[C@H](c1ccc(C(F)(F)F)nn1)N(C)C(=O)c1cc2c3c(c(N)nc2cc1F)[C@@H](C)OC3 (single isomer, unassigned) [Example 862]
34 | 7 | 340 | C[C@H](c1ncc(C(F)(F)F)cc1F)N(C)C(=O)c1cc2c(cc1F)nc(N)c1cnn(C)c12 (single isomer, unassigned) [Example 863]
35 | 618 | 22700 | C[C@@H](c1ncc(C(F)(F)F)cc1F)N(C)C(=O)c1cc2c(cc1F)nc(N)c1cnn(C)c12 (single isomer, unassigned) [Example 864]
36 | 59 | 2810 | C[C@H](c1ncc(C(F)(F)F)cc1F)N(C)C(=O)c1cc2c(cc1F)nc(N)c1c2cnn1C (single isomer, unassigned) [Example 865]
37 | 309 | 11300 | COc1cc(C(F)(F)F)cnc1[C@@H](C)N(C)C(=O)c1cc2c(cc1F)nc(N)c1c2cnn1C (single isomer, unassigned) [Example 866]
38 | 157 | 7840 | COc1cc(C(F)(F)F)cnc1[C@@H](C)N(C)C(=O)c1cc2c(cc1F)nc(N)c1cnn(C)c12 (single isomer, unassigned) [Example 867]
39 | 59 | 3840 | C[C@H](c1ccc(S(F)(F)(F)(F)F)cc1)N(C)C(=O)c1cc2c(cn1)nc(N)c1c2cnn1C (single isomer, unassigned) [Example 868]
40 | 627 | 8430 | C[C@@H](c1ccc(S(F)(F)(F)(F)F)cc1)N(C)C(=O)c1cc2c(cc1F)nc(N)c1cnn(C)c12 (single isomer, unassigned) [Example 869]
41 | 7 | 162 | C[C@H](c1ccc(S(F)(F)(F)(F)F)cc1)N(C)C(=O)c1cc2c(cc1F)nc(N)c1cnn(C)c12 (single isomer, unassigned) [Example 870]
42 | 25 | 78 | CC[C@H](c1cncnc1)N(Cc1ccc(S(F)(F)(F)(F)F)cc1)C(=O)c1cc2c(cn1)nc(N)c1cnn(C)c12 (single isomer, unassigned) [Example 871]
43 | 75 | 4500 | CC[C@@H](c1cncnc1)N(Cc1ccc(S(F)(F)(F)(F)F)cc1)C(=O)c1cc2c(cn1)nc(N)c1cnn(C)c12 (single isomer, unassigned) [Example 872]
44 | 66 | 7320 | C[C@H](c1ccc(F)cn1)N(C)C(=O)c1cc2c(cc1F)nc(N)c1cnn(C)c12 (single isomer, unassigned) [Example 873]
45 | 929 | 36000 | C[C@@H](c1ccc(F)cn1)N(C)C(=O)c1cc2c(cc1F)nc(N)c1cnn(C)c12 (single isomer, unassigned) [Example 874]
46 | 25 | 1420 | CCN(C(=O)c1cc2c(cc1F)nc(N)c1cnn(C)c12)[C@H](C)c1ccc(F)cn1 (single isomer, unassigned) [Example 875]
47 | 334 | 30400 | CCN(C(=O)c1cc2c(cc1F)nc(N)c1cnn(C)c12)[C@@H](C)c1ccc(F)cn1 (single isomer, unassigned) [Example 876]

From patent US20240101570A1 (AMGEN INC., priority 2020, published 2024)
